What is called inhibition is the relative decrease from the control value, in per cent. A word on the TD50: it is the 50% point of the dose-response relation for the toxic effect studied.

Results on 3 compounds are retold here after ChEMBL document CHEMBL3875185, “Structure-anticonvulsant activity studies in the group of (E)-N-cinnamoyl aminoalkanols derivatives monosubstituted in phenyl ring with 4-Cl, 4-CH3 or 2-CH3” (Bioorg Med Chem, 2017).

The target in data set [1] is Cannabinoid receptor 1 (Homo sapiens) (UniProt P21554). The data set can be described thus: Displacement of [3H]CP 55940 from human recombinant CB1 receptor expressed in CHO cells at 100 uM measured after 120 mins by scintillation counting method relative to control. The class given is cell-based. A general note: In a radioligand displacement assay an active substance lowers the binding of a labelled ligand.
Cannabinoid receptor 1 (Homo sapiens), sequence (P21554 whole entry): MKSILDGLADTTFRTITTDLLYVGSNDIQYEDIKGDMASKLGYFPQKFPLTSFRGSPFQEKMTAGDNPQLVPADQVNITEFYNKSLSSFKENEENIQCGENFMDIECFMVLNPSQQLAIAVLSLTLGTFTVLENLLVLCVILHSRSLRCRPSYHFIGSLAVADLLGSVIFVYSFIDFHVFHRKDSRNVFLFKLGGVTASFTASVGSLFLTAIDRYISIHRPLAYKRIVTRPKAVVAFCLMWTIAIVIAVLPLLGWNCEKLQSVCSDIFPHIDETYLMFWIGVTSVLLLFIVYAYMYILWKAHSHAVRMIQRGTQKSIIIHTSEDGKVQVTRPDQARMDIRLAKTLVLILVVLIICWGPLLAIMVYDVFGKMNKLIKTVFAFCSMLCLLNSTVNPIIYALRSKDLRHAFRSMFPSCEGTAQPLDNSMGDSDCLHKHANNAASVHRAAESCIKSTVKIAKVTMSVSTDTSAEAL

Data set [2] deals with T1, Substance-K receptor (Homo sapiens) (UniProt P21452).
T1 sequence (whole entry): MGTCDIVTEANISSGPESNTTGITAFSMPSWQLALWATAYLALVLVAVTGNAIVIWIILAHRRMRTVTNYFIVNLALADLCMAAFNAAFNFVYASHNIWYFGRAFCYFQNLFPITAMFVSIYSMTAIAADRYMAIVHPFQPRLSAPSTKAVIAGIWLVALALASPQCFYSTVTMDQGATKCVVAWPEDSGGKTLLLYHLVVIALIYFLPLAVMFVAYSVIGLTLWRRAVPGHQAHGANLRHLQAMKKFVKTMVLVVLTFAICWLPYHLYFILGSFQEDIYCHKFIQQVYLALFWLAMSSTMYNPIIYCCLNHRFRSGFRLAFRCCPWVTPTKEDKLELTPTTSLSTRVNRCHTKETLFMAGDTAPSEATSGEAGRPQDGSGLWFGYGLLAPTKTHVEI
The data set can be described thus: Displacement of [125I]NKA from human recombinant NK2 receptor expressed in CHO cells at 100 uM measured after 60 mins by scintillation counting method relative to control. It is filed as cell-based.

Data set [3] is filed under the species Rattus norvegicus. Kind of data set: Displacement of [3H]batrachotoxinin from rat cerebral cortex sodium channel site 2 at 100 uM measured after 60 mins by scintillation counting method relative to control.
Data set [4] can be described thus: Protection index, ratio of TD50 for neurotoxicity in po dosed mouse to ED50 for po dosed 6-Hz induced seizure mouse model at 44 mA. It is filed as toxicity, organism-based. Particulars: in vivo, read-out: Ratio TD50/ED50.
Data set [5] deals with T2, Neuromedin-K receptor (Homo sapiens) (UniProt P29371).
T2 sequence (whole entry): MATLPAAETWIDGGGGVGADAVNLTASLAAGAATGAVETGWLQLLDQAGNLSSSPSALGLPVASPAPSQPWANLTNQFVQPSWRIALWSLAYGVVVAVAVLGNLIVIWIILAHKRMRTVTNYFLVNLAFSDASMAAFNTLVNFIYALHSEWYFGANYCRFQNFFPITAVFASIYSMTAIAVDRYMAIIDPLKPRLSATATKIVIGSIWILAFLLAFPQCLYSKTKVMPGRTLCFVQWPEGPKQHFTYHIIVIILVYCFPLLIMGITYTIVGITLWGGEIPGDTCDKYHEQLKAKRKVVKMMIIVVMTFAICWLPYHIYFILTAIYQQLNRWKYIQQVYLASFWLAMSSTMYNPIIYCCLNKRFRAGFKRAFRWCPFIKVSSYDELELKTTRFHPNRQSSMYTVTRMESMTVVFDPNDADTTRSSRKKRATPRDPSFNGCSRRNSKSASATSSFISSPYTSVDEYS
The data set can be described thus: Displacement of [3H]SR 142801 from human recombinant NK3 receptor expressed in CHO cells at 100 uM measured after 120 mins by scintillation counting method relative to control. It is filed as cell-based.

Data set [6] can be described thus: Protection index, ratio of TD50 for neurotoxicity in ip dosed mouse to ED50 for ip dosed 6-Hz induced seizure mouse model at 44 mA. Particulars: in vivo, read-out: Ratio TD50/ED50. The class given is toxicity, organism-based.
In data set [7] the target is T3, C-C chemokine receptor type 1 (Homo sapiens) (UniProt P32246).
T3 sequence (whole entry): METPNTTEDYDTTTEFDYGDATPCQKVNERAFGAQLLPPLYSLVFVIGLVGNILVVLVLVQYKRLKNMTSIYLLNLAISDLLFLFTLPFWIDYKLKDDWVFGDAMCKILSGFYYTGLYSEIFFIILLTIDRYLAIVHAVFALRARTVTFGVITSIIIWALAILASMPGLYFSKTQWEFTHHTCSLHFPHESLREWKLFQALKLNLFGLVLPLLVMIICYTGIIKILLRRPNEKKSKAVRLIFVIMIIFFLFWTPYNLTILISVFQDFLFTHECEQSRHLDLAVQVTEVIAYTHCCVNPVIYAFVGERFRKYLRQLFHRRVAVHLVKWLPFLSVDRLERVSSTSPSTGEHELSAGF
Kind of data set: Displacement of [125I]MIP-1a from human recombinant CCR1 receptor expressed in HEK293 cells at 100 uM measured after 120 mins by scintillation counting method relative to control. The class given is cell-based.

The test system of data set [8] is Mus musculus. The data set can be described thus: Anticonvulsant activity in ip dosed maximal electroshock induced seizure mouse model assessed as suppression in hindlimb tonic extension by measuring time to peak effect. The class given is functional. Background: Protection in the maximal electroshock model is a classic sign of anticonvulsant action.
In data set [9] the target is Substance-P receptor (Homo sapiens) (UniProt P25103). Kind of data set: Displacement of [125I]BH-SP from NK1 receptor in human U373MG cells at 100 uM measured after 30 mins by scintillation counting method relative to control. It is filed as cell-based. The note with it: U-373MG ATCC.
Substance-P receptor (Homo sapiens), sequence (P25103 whole entry): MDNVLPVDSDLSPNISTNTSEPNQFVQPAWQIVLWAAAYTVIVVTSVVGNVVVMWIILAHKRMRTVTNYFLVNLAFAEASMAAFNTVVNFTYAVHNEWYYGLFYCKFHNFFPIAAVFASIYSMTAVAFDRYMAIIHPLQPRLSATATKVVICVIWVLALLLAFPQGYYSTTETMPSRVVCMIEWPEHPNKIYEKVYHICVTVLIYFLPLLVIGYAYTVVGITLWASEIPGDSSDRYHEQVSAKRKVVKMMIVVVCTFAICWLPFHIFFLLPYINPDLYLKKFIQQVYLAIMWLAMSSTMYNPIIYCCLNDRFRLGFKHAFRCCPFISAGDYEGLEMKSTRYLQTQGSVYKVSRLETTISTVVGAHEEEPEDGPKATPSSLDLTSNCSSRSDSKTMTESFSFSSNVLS
Data set [10] deals with 5-hydroxytryptamine receptor 2B (Homo sapiens) (UniProt P41595). The data set can be described thus: Displacement of [125I]DOI from human recombinant 5HT2B receptor expressed in CHO cells at 100 uM measured after 60 mins by scintillation counting method relative to control. The class given is cell-based.
5-hydroxytryptamine receptor 2B (Homo sapiens), sequence (P41595 whole entry): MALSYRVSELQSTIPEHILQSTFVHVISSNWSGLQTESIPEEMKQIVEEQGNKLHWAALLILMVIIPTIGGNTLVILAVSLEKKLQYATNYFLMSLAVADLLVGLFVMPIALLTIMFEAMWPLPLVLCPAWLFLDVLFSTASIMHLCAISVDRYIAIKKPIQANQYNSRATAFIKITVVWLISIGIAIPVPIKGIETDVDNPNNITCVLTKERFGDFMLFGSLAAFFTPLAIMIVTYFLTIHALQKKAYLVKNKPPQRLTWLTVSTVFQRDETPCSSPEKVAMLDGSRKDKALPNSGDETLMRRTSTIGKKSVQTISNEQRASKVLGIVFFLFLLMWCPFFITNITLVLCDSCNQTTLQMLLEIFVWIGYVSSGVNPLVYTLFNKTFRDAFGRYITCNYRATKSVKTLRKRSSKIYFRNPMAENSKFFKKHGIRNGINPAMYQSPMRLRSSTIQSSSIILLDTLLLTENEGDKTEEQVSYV
Data set [11] is described as follows: Protection index, ratio of TD50 for neurotoxicity in po dosed mouse to ED50 for po dosed pentylenetetrazole induced seizure mouse model. It is filed as toxicity, organism-based. Particulars: in vivo, read-out: Ratio TD50/ED50.
Data set [12] in a line: Protection index, ratio of TD50 for neurotoxicity in ip dosed Sprague-Dawley rat model to ED50 for ip dosed pentylenetetrazole induced seizure Sprague-Dawley rat model. The class given is toxicity, organism-based. The note with it: in vivo, read-out: Ratio TD50/ED50.
In data set [13] the target is T4, Adenosine receptor A1 (Homo sapiens) (UniProt P30542).
T4 sequence (whole entry): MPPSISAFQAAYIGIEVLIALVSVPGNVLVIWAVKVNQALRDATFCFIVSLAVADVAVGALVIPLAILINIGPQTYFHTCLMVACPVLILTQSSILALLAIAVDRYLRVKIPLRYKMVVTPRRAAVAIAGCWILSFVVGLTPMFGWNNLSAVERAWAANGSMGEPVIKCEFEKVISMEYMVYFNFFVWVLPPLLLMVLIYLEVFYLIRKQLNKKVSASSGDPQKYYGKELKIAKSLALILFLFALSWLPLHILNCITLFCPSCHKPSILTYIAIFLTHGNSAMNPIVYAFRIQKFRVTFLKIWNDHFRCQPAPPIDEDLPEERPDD
The data set can be described thus: Displacement of [3H]DPCPX from human recombinant adenosine receptor A1 expressed in CHO cells at 100 uM measured after 60 mins by scintillation counting method relative to control. It is filed as cell-based.

Data set [14] is filed under the species Rattus norvegicus. Kind of data set: Displacement of [125I]alpha-dendrotoxin from rat cerebral cortex Kv channel at 100 uM measured after 60 mins by scintillation counting method relative to control.
The test system of data set [15] is Mus musculus. The data set can be described thus: Neurotoxicity in mouse assessed as induction of motor impairment at 30 mg/kg, ip measured at 0.5 hrs post dose by rotarod method. The class given is toxicity, organism-based. Particulars: in vivo. On the technique in general: The rotarod test checks motor coordination on a turning rod.
The nature of data set [16]: Neurotoxicity in po dosed mouse. It is filed as toxicity, organism-based. Particulars: in vivo.
Data set [17] deals with Calcitonin gene-related peptide type 1 receptor (Homo sapiens) (UniProt Q16602). Kind of data set: Displacement of [125I]hCGRPa from human recombinant CGRP receptor expressed in CHO cells at 100 uM measured after 90 mins by scintillation counting method relative to control. It is filed as cell-based.
Calcitonin gene-related peptide type 1 receptor (Homo sapiens), sequence (Q16602 whole entry): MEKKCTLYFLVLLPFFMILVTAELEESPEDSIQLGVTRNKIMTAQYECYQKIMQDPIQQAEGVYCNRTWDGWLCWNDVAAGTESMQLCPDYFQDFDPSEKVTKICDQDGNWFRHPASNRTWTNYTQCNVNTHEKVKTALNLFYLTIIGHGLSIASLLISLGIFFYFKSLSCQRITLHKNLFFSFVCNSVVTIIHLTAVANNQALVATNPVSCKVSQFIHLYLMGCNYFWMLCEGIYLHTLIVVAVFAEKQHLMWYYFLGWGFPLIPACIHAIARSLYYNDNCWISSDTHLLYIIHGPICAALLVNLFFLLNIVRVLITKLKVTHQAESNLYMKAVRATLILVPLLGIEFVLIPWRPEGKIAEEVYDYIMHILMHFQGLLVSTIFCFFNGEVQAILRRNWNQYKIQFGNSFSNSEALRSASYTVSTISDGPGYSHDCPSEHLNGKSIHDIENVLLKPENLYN
Data set [18] deals with Rattus norvegicus. The data set can be described thus: Neurotoxicity in Sprague-Dawley rat assessed as behavioral change at 50 mg/kg, ip measured at 4 hrs post dose. The class given is toxicity, organism-based. Particulars: in vivo.

As to `Cc1ccccc1/C=C/C(=O)N[C@@H](C)CO`, the inhibition was 9.1% in data set [1]; 1.2% in [2]; -2.3% in the data set filed under Rattus norvegicus [3]; -0.4% in data set [5]; -3.7% in data set [7]; -5.7% in data set [9]. Further, the inhibition in [10] is 79.8%; in [13] it was 1.3%; in the data set listed under Rattus norvegicus [14], -8.7%; in [17], -7.6%. For the same compound, the selectivity ratio in [4] came to 3.81; in [6] it was 3.55; in [11] it was 2.15; in [12] it was 4.18. In addition, the Time in the data set on Mus musculus [8] is 0.25 h. Moreover, the Activity entry in the data set on Mus musculus [15] is on record as “Non-Toxic”. The TD50 in data set [16] is 282 mg/kg.

Turning to `CCC(CO)NC(=O)/C=C/c1ccc(Cl)cc1` (stereo not drawn), the inhibition in data set [1] was 11.5%; in data set [2], 48.3%; in the data set filed under Rattus norvegicus [3] it was 28.4%; in [5], 5.8%; in data set [7], -2.2%; in [9] it was 3%. In addition, the inhibition in data set [10] was 58.2%; in data set [13], -0.4%. In addition, the selectivity ratio turned out to be 2.12 in data set [6] and 1.23 in [12]. Also, the Time with Mus musculus [8] was 0.25 h. The Activity result with Rattus norvegicus [18] and with Mus musculus [15] was “Non-Toxic” throughout.

For `CC(O)CNC(=O)/C=C/c1ccc(Cl)cc1` (stereo not drawn), the inhibition in data set [1] is 4.7%; in [2], 19.5%; in the data set filed under Rattus norvegicus [3] it was 10.2%; in data set [5], 5.2%; in data set [7], -2%; in data set [9], 3.1%. The inhibition in data set [10] was 41.6%; in data set [13], 10%; in the data set filed under Rattus norvegicus [14] it was -9.6%; in data set [17] it was -6.9%. Moreover, the selectivity ratio was over 4.17 in data set [4], 3.51 in data set [6], over 3.79 in data set [11] and 1.25 in data set [12]. For the same compound, the Time with Mus musculus [8] worked out at 0.5 h. The Activity entry with Rattus norvegicus [18] and in the data set with Mus musculus [15] was “Non-Toxic” each time. The compound also displayed a TD50 in data set [16] of over 500 mg/kg.
